Test system: Pyricularia oryzae
Assay type: cell-based
Settings: 125 ppm, microtiter plate, absorption at 405 nm on the seventh day after inoculation

CCCCCCCCc1c(N)nc(SC)nc1CC [I-3, 6-ethyl-2-methylsulfanyl-5-octylpyrimidin-4-ylamine]
growth (relative growth of the pathogen): inhibited completely
